In the METLIN SMRT retention time set (Domingo-Almenara et al. 2019):

assay: gradient 5% acetonitrile 3 min, to 50% in 2 min, to 85% in 15 min, held 3 min, 100 µL/min; conditions: column: Zorbax Extend-C18 2.1 x 50 mm; eluents: water / acetonitrile, 0.1% formic acid
Method in brief: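 Retention time was recorded from adduct peaks, which were picked computationally and each inspected manually. Pure standards ran in mixtures of ~100 molecules on HPLC coupled to a quadrupole time-of-flight mass spectrometer, in positive and negative ionization mode, through a Zorbax Extend-C18 column (2.1 × 50 mm, 1.8 μm) at 100 μL/min. Eluents were water and acetonitrile, each with 0.1% formic acid.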

For `CCc1cc2c(N3CCCC(C(=O)NCCCN4CCN(CC)CC4)C3)ncnc2s1` (configuration not stated), which RP-LC retention time is on record?
Its RP-LC retention time is 579 s.

Which RP-LC retention time does the source give for `Cc1ccc(CNC(=O)C2CCN(S(=O)(=O)c3cc(C(=O)N4CCCC4)n(C)c3)CC2)o1` here?
The RP-LC retention time was 699 s.

Which RP-LC retention time does the source give for `Cc1nc(CSc2nc3cc([N+](=O)[O-])ccc3s2)cs1` here?
Its RP-LC retention time is 916 s.

With `Cc1c(C2CCN(C(=O)c3ccc(Br)cc3)CC2)noc1N` as the compound, how does the RP-LC retention time read?
Its RP-LC retention time is 728 s.

For `COC(=O)CNC(=O)N1CCCCCC1c1cccc(C)c1` (configuration not stated), which RP-LC retention time is on record?
The RP-LC retention time was 840 s.

With `CCOc1ccc(NS(=O)(=O)c2cc(-c3[nH]ncc3C(=O)N(C)C)oc2C)cc1` as the compound, how does the RP-LC retention time read?
Its RP-LC retention time is 686 s.

With `O=C(NCc1cccnc1)C1CCN(S(=O)(=O)c2cc(-c3noc(C4CCC4)n3)cs2)CC1` as the compound, how does the RP-LC retention time read?
Its RP-LC retention time is 702 s.

For `COc1ccc(-c2cc(C(=O)O)c3ccccc3n2)cc1OC`, which RP-LC retention time is on record?
The RP-LC retention time was 658 s.

With `O=C(CCC1CCCN(S(=O)(=O)c2ccccc2F)C1)NC1CCCCC1` (configuration not stated) as the compound, how does the RP-LC retention time read?
Its RP-LC retention time is 952 s.

For `COc1cccc(CNC(=O)C2(C)CCCN(C(=O)Nc3cc(OC)ccc3OC)C2)c1` (configuration not stated), which RP-LC retention time is on record?
The RP-LC retention time was 844 s.

Which RP-LC retention time does the source give for `Cc1cc(C)n(CC(O)COc2ccc(C(=O)c3ccc(Cl)cc3)cc2)n1` (configuration not stated) here?
Its RP-LC retention time is 848 s.

For `CCOC(=O)C1=C(CN2CCCCC2)NC(=O)NC1c1cccs1` (configuration not stated), which RP-LC retention time is on record?
Its RP-LC retention time is 545 s.

With `COc1ccc(Nc2nc(N3CCN(c4ncccn4)CC3)nc3c2C(=O)CC(C)(C)C3)cc1` as the compound, how does the RP-LC retention time read?
The RP-LC retention time was 1250 s.

Which RP-LC retention time does the source give for `CCC(=O)N1CCN(c2nc3c(s2)CC(C(=O)NC(CC)CC)CC3)CC1` (configuration not stated) here?
Its RP-LC retention time is 546 s.

Which RP-LC retention time does the source give for `CC(C)n1c(=O)c(NCc2ccccc2C(F)(F)F)nc2ccncc21` here?
The RP-LC retention time was 714 s.

Which RP-LC retention time does the source give for `N#CCN(c1ccc2c(c1)OCO2)S(=O)(=O)c1ccc2nncn2c1` here?
The RP-LC retention time was 692 s.

Which RP-LC retention time does the source give for `COc1ccccc1N(Cc1nc2nc(C)cc(C)n2n1)C(=O)c1ccco1` here?
Its RP-LC retention time is 709 s.

Which RP-LC retention time does the source give for `C[C@@H]1CCN(C(=O)C(CCCN=C(N)N)NS(=O)(=O)c2cccc3c2NC[C@H](C)C3)C(C(=O)O)C1` (some centres not stated) here?
The RP-LC retention time was 767 s.

For `O=C(Nc1ccc2c(c1)OCO2)c1nnc(C2CCCN2C(=O)NCc2ccc(F)cc2)s1` (configuration not stated), which RP-LC retention time is on record?
Its RP-LC retention time is 854 s.

For `Cn1c(=O)c(N2CCN(S(=O)(=O)c3ccc(Cl)cc3)CC2)nc2ccncc21`, which RP-LC retention time is on record?
The RP-LC retention time was 674 s.

With `CN1CCN(CCNC(=O)c2cc(-c3cccnc3)nc3ccc(Br)cc23)CC1` as the compound, how does the RP-LC retention time read?
The RP-LC retention time was 585 s.

For `COc1ccc(NS(=O)(=O)c2cc(-c3cc(C(F)(F)F)on3)sc2C)c(OC)c1`, which RP-LC retention time is on record?
Its RP-LC retention time is 1130 s.

Which RP-LC retention time does the source give for `Cc1ccccc1NC(=O)C1CCCN(c2ncnc3c2nc2n3CCCCC2)C1` (configuration not stated) here?
The RP-LC retention time was 766 s.

With `COCc1nncn1C1CCN(S(=O)(=O)c2ccc(C)c(Cl)c2)CC1` as the compound, how does the RP-LC retention time read?
Its RP-LC retention time is 770 s.

With `Cc1ccc2c(c1)C(O)(CC(=O)c1cccc(-n3cccc3)c1)C(=O)N2` (configuration not stated) as the compound, how does the RP-LC retention time read?
The RP-LC retention time was 711 s.

Which RP-LC retention time does the source give for `CCNc1cc(N2CCC(CCC(=O)Nc3ccc4c(c3)OCCO4)CC2)ncn1` here?
Its RP-LC retention time is 572 s.

Which RP-LC retention time does the source give for `Cc1ccc(Nc2nc(C)cc3nn(CC(=O)NC4CCCC4)c(=O)n23)cc1` here?
The RP-LC retention time was 640 s.

With `CCOC(=O)c1c(CN2CCOCC2)n(C)c2cc(Br)c(OC(C)=O)cc12` as the compound, how does the RP-LC retention time read?
Its RP-LC retention time is 704 s.

For `O=C(c1ccc(Cl)c(Cl)c1)N1CCN(Cc2nncn2C2CCCCC2)CC1`, which RP-LC retention time is on record?
Its RP-LC retention time is 708 s.

Which RP-LC retention time does the source give for `Cc1ccc(Cn2cc(-c3ccncc3)cc2C(=O)NCCN(C)C)cc1` here?
The RP-LC retention time was 570 s.

For `Cc1cc(NC(=O)C(=O)c2cccn2C)ccc1Br`, which RP-LC retention time is on record?
The RP-LC retention time was 1120 s.

For `CCCS(=O)(=O)N1CC(=O)N(c2cccc(Cl)c2)C(C)(C(=O)NC2CCCCC2)C1` (configuration not stated), which RP-LC retention time is on record?
Its RP-LC retention time is 955 s.

Which RP-LC retention time does the source give for `CCOc1ccc(-c2nnc3ccc(SC(C(C)=O)C(=O)N(C)C)nn23)cc1` (configuration not stated) here?
Its RP-LC retention time is 665 s.

For `COc1ccc(NC(=O)N2CCC(c3nc(C(=O)N(C)C)c(C)o3)CC2)cc1`, which RP-LC retention time is on record?
Its RP-LC retention time is 676 s.

With `Cc1cc(C)c(CNC(=O)c2cn3ccccc3n2)c(C)c1` as the compound, how does the RP-LC retention time read?
Its RP-LC retention time is 783 s.

Which RP-LC retention time does the source give for `CCCNC(=O)c1n[nH]c2c1CC(C)CC2` (configuration not stated) here?
Its RP-LC retention time is 740 s.

Which RP-LC retention time does the source give for `Cc1cc(=O)n(CC(=O)NCc2ccccc2Br)c(N2CCc3ccccc3C2)n1` here?
Its RP-LC retention time is 818 s.

With `Cn1ncc(N2CCC(C(=O)NCc3nc4ccccc4n3C)C2)cc1=O` (configuration not stated) as the compound, how does the RP-LC retention time read?
Its RP-LC retention time is 569 s.

For `O=C(Cc1c[nH]c2ccccc12)N1CCCN(C2CCN(CC3CC3)C2=O)CC1` (configuration not stated), which RP-LC retention time is on record?
Its RP-LC retention time is 610 s.

For `Brc1ccc(OCc2nnc3sc(CCc4ccccc4)nn23)cc1`, which RP-LC retention time is on record?
The RP-LC retention time was 1060 s.

For `Cc1cc(C)n(C(=O)c2ccc(Cl)cc2[N+](=O)[O-])n1`, which RP-LC retention time is on record?
Its RP-LC retention time is 927 s.

For `COc1ccc(-c2ccnc3nc(CC(C)C)nn23)c(F)c1`, which RP-LC retention time is on record?
The RP-LC retention time was 904 s.

For `C=CCOC(=O)COc1ccc2c(=O)c(-c3ccc(Cl)cc3)coc2c1`, which RP-LC retention time is on record?
Its RP-LC retention time is 1020 s.

Which RP-LC retention time does the source give for `Cc1ccc(S(=O)(=O)NCC(=O)Nc2ccc3c(c2)Cc2ccccc2-3)cc1` here?
Its RP-LC retention time is 975 s.

Which RP-LC retention time does the source give for `COC(=O)c1nnn(-c2nonc2N)c1CN1CCN(c2ccccn2)CC1` here?
The RP-LC retention time was 578 s.

With `CCOc1ccc(-c2nc(NC(=O)c3ccccc3[N+](=O)[O-])sc2C)cc1` as the compound, how does the RP-LC retention time read?
The RP-LC retention time was 1050 s.

With `Cc1noc(N)c1-c1ccc(Cl)cc1` as the compound, how does the RP-LC retention time read?
Its RP-LC retention time is 807 s.

With `Cc1[nH]c(C(=O)N2CCC(CC(=O)N3CCCCCC3)CC2)c(C)c1C(=O)OC(C)C` as the compound, how does the RP-LC retention time read?
Its RP-LC retention time is 879 s.

With `COc1cc(OC)cc(C(=O)N2CCN(c3cc(=O)n(C(C)C)c(=O)n3C(C)C)CC2)c1` as the compound, how does the RP-LC retention time read?
The RP-LC retention time was 855 s.

For `O=C(Cn1nc2c3sc(N4CCCCC4)nc3ncn2c1=O)Nc1ccc(Br)cc1`, which RP-LC retention time is on record?
The RP-LC retention time was 848 s.

For `Cc1noc(-c2ccc(-n3ncc(C(=O)NC4CC4)c3C)nc2)n1`, which RP-LC retention time is on record?
The RP-LC retention time was 709 s.

For `COc1ccc(Cc2nc3nccc(-c4ccccc4)n3n2)cc1`, which RP-LC retention time is on record?
Its RP-LC retention time is 872 s.

Which RP-LC retention time does the source give for `O=C(NCCSC12CC3CC(CC(C3)C1)C2)c1ccc(CN2C(=O)CCn3nccc32)cc1` here?
The RP-LC retention time was 645 s.

For `O=C(CCc1ccc2cc[nH]c2c1)N1CCN(c2ccc(Cl)cc2)CC1`, which RP-LC retention time is on record?
Its RP-LC retention time is 996 s.

For `Cc1cc(C)cc(N2CCC(NC(=O)Nc3cccc(F)c3C)C2=O)c1` (configuration not stated), which RP-LC retention time is on record?
Its RP-LC retention time is 938 s.

With `CS(=O)(=O)N1CCC(C(=O)NCc2ccsc2)CC1` as the compound, how does the RP-LC retention time read?
The RP-LC retention time was 616 s.

Which RP-LC retention time does the source give for `O=c1ccn(-c2cccc(F)c2)nc1-c1nc(-c2ccc(F)c(Br)c2)no1` here?
Its RP-LC retention time is 1040 s.

Which RP-LC retention time does the source give for `Cc1ccc(-c2ccnc3nc(-c4ccccc4)nn23)cc1` here?
The RP-LC retention time was 1020 s.

Which RP-LC retention time does the source give for `O=C(c1cn2ccccc2n1)N1CCN(c2ccccc2Cl)CC1` here?
The RP-LC retention time was 854 s.

Which RP-LC retention time does the source give for `Cc1c(-c2noc(-c3ccc4cc[nH]c4c3)n2)nnn1Cc1cccc(F)c1` here?
Its RP-LC retention time is 996 s.

With `Cc1cccc2nnc(N3CCN(C(=O)c4ccc(F)c(F)c4)CC3)n12` as the compound, how does the RP-LC retention time read?
The RP-LC retention time was 652 s.

Which RP-LC retention time does the source give for `COc1ccc(NC(=O)C2CCc3nc(N4CCC(C)CC4)ncc3C2)c(OC)c1` (configuration not stated) here?
The RP-LC retention time was 873 s.

Which RP-LC retention time does the source give for `CCn1cc(CCNC(=O)C(C)C)c2cccnc21` here?
Its RP-LC retention time is 612 s.

For `Cc1cccc(NC(=O)NCC(c2cccnc2)c2cn(C)c3ccccc23)c1` (configuration not stated), which RP-LC retention time is on record?
Its RP-LC retention time is 723 s.

With `c1cc(CN2CCCCC2)cc(OCCCNc2nc3ccccc3s2)c1` as the compound, how does the RP-LC retention time read?
The RP-LC retention time was 665 s.

With `Cc1[nH]c(C(=O)N2CCC(CC(=O)N3CCN(c4ccccn4)CC3)CC2)c(C)c1C(=O)OC(C)C` as the compound, how does the RP-LC retention time read?
Its RP-LC retention time is 628 s.

Which RP-LC retention time does the source give for `CCCNC(=O)CCc1ccc2nc(-c3ccccc3)[nH]c2c1` here?
The RP-LC retention time was 593 s.
